Test [1] concerns the target T1, wild type avian FAK catalytic domain (GST fusion protein) (Gallus gallus, UniProt Q00944).
T1 construct: the catalytic domain of FAK was expressed as a GST fusion protein; made in house; host or cells: Escherichia coli BL21 (Codon Plus)
Put plainly: Fluorescence anisotropy binding of BODIPY-labeled C6 phosphoinositides to wild type catalytic domain. The settings on record: for Binding to wild type catalytic domain compared with the PI control (ANOVA, Tukey's posttest): anisotropy at 100 and 200 μM protein. The method, then:
(§1) For anisotropy experiments purified GST fusion proteins were incubated with BODIPY (dipyrromethene boron difluoride)-labeled phosphoinosotides with C6-acyl chains (Echelon). Increasing concentrations of purified protein were added to 12.5 nM fluorescent phosphoinositide in buffer containing 20 mM HEPES [pH7.5], 150 mM NaCl, and 5 mM β-mercaptoethanol. Anisotropy measurements were taken at 37°C using a Flourlog spectroflourometer equipped with Glan-Thompson polarizers with FluorEssence software (HORIBA Jobin Yvon). Specific binding of the catalytic domain was determined by subtraction of binding of GST alone. Binding curves and dissociation constants were determined using the Prism 5.0 statistical analysis software (GraphPad).
(§2) PI(4,5)P2 binding was further validated using fluorescence anisotropy. GST and the GST catalytic domain of FAK were incubated with BODIPY-TMR labeled short acyl chain (C6) PI or PI(4,5)P2 and anisotropy measured.
To test the specificity of the lipid interaction, the binding of wild type and RK5A GST-fusion proteins to phosphatidylinositol, PI(4)P, PI(4,5)P2, and PI(3,4,5)P3 was analyzed. Purified GST catalytic domain fusion proteins were titrated into a solution of BODIPY-labeled phospholipids with C6-acyl chains, and anisotropy was measured. Phosphatidylinositol with C6-acyl chains and purified GST were used as controls. Differences in anisotropy of each BODIPY-labeled phospholipid at 100 and 200 μM of each protein were compared by ANOVA and a Tukey’s posttest (S1 Table). […] To calculate binding affinities, anisotropy was plotted against protein concentration and binding to GST was subtracted as background binding. […] To determine if the observed interaction with the short acyl chain PI(4,5)P2 required the basic residues implicated in binding to PI(4,5)P2-containing vesicles, the RK5A mutant was analyzed.
On the technique in general: Polarisation of emitted light reports the rotation of a fluorescent probe.

Test [2] concerns the target T2, FAK catalytic domain R508A/R514A/K515A mutant (GST fusion protein) (Gallus gallus, UniProt Q00944, K515A/R508A/R514A).
T2 construct: mutations were engineered into the GST-catalytic domain construct; made in house; host or cells: Escherichia coli BL21 (Codon Plus)
The note with it: BODIPY-labeled C6 lipid, Fig 7, read-out: Kd for binding (specific binding, GST subtracted).
From the text: (§3) Short acyl chain (C6) BODIPY labeled PI(4,5)P2, was chosen to assess the ability of these mutants to bind phospholipids using fluorescence anisotropy.

The target of test [3] is T3, FAK catalytic domain K621A/K627A mutant (GST fusion protein) (Gallus gallus, UniProt Q00944, K621A/K627A).
T3 construct: mutations were engineered into the GST-catalytic domain construct; made in house; host or cells: Escherichia coli BL21 (Codon Plus)
The note with it: BODIPY-labeled C6 lipid, Fig 7, read-out: Kd for binding (specific binding, GST subtracted).
From the text: as §3

Test [4] has as its target T4, FAK catalytic domain R508A/K621A mutant (GST fusion protein) (Gallus gallus, UniProt Q00944, K621A/R508A).
T4 construct: mutations were engineered into the GST-catalytic domain construct; made in house; host or cells: Escherichia coli BL21 (Codon Plus)
The settings on record: BODIPY-labeled C6 lipid, Fig 7, read-out: Kd for binding (specific binding, GST subtracted).
From the text: as §3

Test [5] has as its target T5, FAK catalytic domain RK5A mutant (GST fusion protein) (Gallus gallus, UniProt Q00944, K515A/K621A/K627A/R508A/R514A).
T5 construct: This GST mutant catalytic domain fusion protein was found in the supernatant; made in house; host or cells: Escherichia coli BL21 (Codon Plus)
Put plainly: Fluorescence anisotropy binding of BODIPY-labeled C6 phosphoinositides to RK5A mutant. Details: species or system avian. The method, then: as §1, §2
To test the specificity of the lipid interaction, the binding of wild type and RK5A GST-fusion proteins to phosphatidylinositol, PI(4)P, PI(4,5)P2, and PI(3,4,5)P3 was analyzed. Purified GST catalytic domain fusion proteins were titrated into a solution of BODIPY-labeled phospholipids with C6-acyl chains, and anisotropy was measured. Phosphatidylinositol with C6-acyl chains and purified GST were used as controls. […]

[6] abbreviates: wild type catalytic domain, lipid specificity experiment, Fig 8B, read-out: Kd of the wild type catalytic domain for each phosphatidylinositol phosphate.

As usually defined, the Kd is a measure of binding affinity in units of concentration.

Where two headings read alike, the source gives them in different places. A value given as a limit tells only on which side of the number the result lay.

T1 sequence (Q00944 422-680 limits assumed): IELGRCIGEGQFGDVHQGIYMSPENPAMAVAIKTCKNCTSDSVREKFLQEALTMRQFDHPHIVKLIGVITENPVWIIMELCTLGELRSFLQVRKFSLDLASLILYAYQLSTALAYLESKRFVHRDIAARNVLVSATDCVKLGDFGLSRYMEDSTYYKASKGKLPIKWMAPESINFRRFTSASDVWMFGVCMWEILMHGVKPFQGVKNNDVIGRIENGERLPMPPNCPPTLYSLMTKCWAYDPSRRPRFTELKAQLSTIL
T5 sequence (Q00944 422-680 R508A/R514A/K515A/K621A/K627A limits assumed): as the sequence (Q00944 422-680 limits assumed) above, with R87A, R93A, K94A, K200A, K206A counted along it
T4 sequence (Q00944 422-680 R508A/K621A limits assumed): as the sequence (Q00944 422-680 limits assumed) above, with R87A, K200A counted along it
T3 sequence (Q00944 422-680 K621A/K627A limits assumed): as the sequence (Q00944 422-680 limits assumed) above, with K200A, K206A counted along it
T2 sequence (Q00944 422-680 R508A/R514A/K515A limits assumed): as the sequence (Q00944 422-680 limits assumed) above, with R87A, R93A, K94A counted along it

Turning to PI(3,4,5)P3, the “Binding to wild type catalytic domain compared with the PI control (ANOVA, Tukey's posttest)” value in test [1] is “significant”. Moreover, in test [1] (setting [6]), the Kd came out at 16 ± 9.2 µM.
As for PI(4)P, in test [1], the “Binding to wild type catalytic domain compared with the PI control (ANOVA, Tukey's posttest)” value is on record as “approached, but did not reach significance”. Also, the equilibrium dissociation constant (Kd) in test [1] (setting [6]) turned out to be 11.7 ± 13.7 µM.
Turning to “Phosphatidylinositol-4,5-bisphosphate [PI(4,5)P2]”, the “Binding to wild type catalytic domain compared with the PI control (ANOVA, Tukey's posttest)” value in test [1] is listed as “significant”. Besides, the Kd was 15.7 ± 6.5 µM in test [1] (wild type catalytic domain, BODIPY-labeled C6 lipid 12.5 nM, 37°C, Fig 7 experiment, read-out: Kd for binding (specific binding, GST subtracted)); 12.9 ± 2.3 µM in test [1] (setting [6]); 16.4 ± 3.2 µM in test [2]; 20.8 ± 2.7 µM in test [3]; more than 200 µM in test [4]; more than 200 µM in test [5] (BODIPY-labeled C6 lipid, Fig 7 experiment, read-out: Kd for binding (specific binding, GST subtracted)). Further, in test [5] (anisotropy, GST subtracted), the “Specific binding (in words)” value was “no specific binding”.
As to phosphatidylinositol [PI], the “Specific binding (in words)” value in test [1] (wild type catalytic domain, anisotropy, GST subtracted) is recorded as “did not specifically bind”. The Kd in test [1] (setting [6]) was more than 200 µM.

The values are drawn from PMC5319746, “Phospholipid binding to the FAK catalytic domain impacts function” (PLoS ONE, 2017).
